Test results from patent US6436960B1, “Farnesyl transferase inhibitors having a piperidine structure and process for preparation thereof” (LG Chemical Ltd., priority 1998, dated 2002).

What was measured:
Ras farnesyl transferase [1] = molecular target: T1, Ras farnesyl transferase (Homo sapiens, UniProt P49354+P49356); experiment: in vitro inhibitory activity for Ras farnesyl transferase, K-Ras substrate; assay type: biochemical; details: recombinant Ras farnesyl transferase, K-Ras substrate; read-out: K-Ras IC50
T1 construct: made in house

Ras farnesyl transferase [2] = molecular target: T2, Ras farnesyl transferase (Rattus norvegicus, UniProt Q02293+Q04631); experiment: in vivo (cellular) Ras farnesyl transferase inhibitory activity, Rat2 cells expressing C-Harvey-Ras; assay type: cell-based; details: Rat2 cell line expressing C-Harvey-Ras; concentration inhibiting 50% of farnesyl binding of Ras protein; read-out: H-Ras CIC50
T2 construct: endogenous in cells; host or cells: Rat2 fibroblasts transformed with C-Harvey-Ras, or with H-Ras carrying the K-Ras C-terminal polybasic lysine domain
Procedure, shortened: (§1)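 Transformed Rat2 cells treated with compound in 1% DMSO, labelled with [35S]methionine from 4 h onward for a further 20 h. Ras immunoprecipitated with Y13-259 and resolved by SDS-PAGE and autoradiography. CIC50 is the concentration inhibiting 50% of Ras farnesylation, from farnesylated versus unfarnesylated band intensities.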

Ras farnesyl transferase [3] = molecular target: T2, Ras farnesyl transferase; experiment: in vivo (cellular) Ras farnesyl transferase inhibitory activity, Rat2 cells transformed with H-Ras fused with polybasic lysine domain of K-Ras; assay type: cell-based; details: Rat2 cell line transformed with H-Ras substituted with polybasic lysine domain at C-terminus of K-Ras; concentration inhibiting 50% of farnesyl binding; read-out: K-Ras CIC50
Procedure, shortened: as §1

Ras farnesyl transferase [4] = molecular target: T1, Ras farnesyl transferase; experiment: in vitro inhibitory activity for Ras farnesyl transferase, H-Ras substrate; assay type: biochemical; details: recombinant Ras farnesyl transferase, H-Ras substrate, tritium-farnesylpyrophosphate, 30 minutes at 37° C.; read-out: H-Ras IC50

Structure (SMILES)	IC50 (Ras farnesyl transferase [1]) [nM]	IC50 (Ras farnesyl transferase [2]) [nM]	IC50 (Ras farnesyl transferase [3]) [nM]	IC50 (Ras farnesyl transferase [4]) [nM]
CN1CCN(C(=O)c2cn(Cc3cncn3CC3CCN(C(=O)N4CCc5ccccc5C4)CC3)cc2-c2cccc3ccccc23)CC1 [Compound 55, 3-(4-Methylpiperazin-1-yl)carbonyl-4-(naphthalen-1-yl)-1-{1-[1-(1,2,3,4-tetrahydroisoquinolin-2-ylcarbonyl)piperidin-4-yl]methyl-1H-imidazol-5-yl}methyl-1H-pyrrole]	40	25	10000 to 50000	2
CCC(=O)N1CCC(Cn2cncc2Cn2cc(C(=O)N(C)CCOC)c(-c3cccc4ccccc34)c2)CC1 [Compound 18, 3-[N-(2-Methoxyethyl)-N-methyl]carbamoyl-4-(naphthalen-1-yl)-1-[1-(1-propionyl-piperidin-4-ylmethyl)-1H-imidazol-5-ylmethyl]-1H-pyrrole]	10 to 1000	10 to 100	1000 to 50000	1
COCCN(C)C(=O)c1cn(Cc2cncn2CC2CCN(C(=O)OCc3ccccc3)CC2)cc1-c1cccc2ccccc12 [Compound 5, 1-[1-(1-Benzyloxycarbonyl-piperidin-4-ylmethyl)-1H-imidazol-5-ylmethyl]-3-[N-(2-methoxyethyl)-N-methyl]carbamoyl-4-(naphthalen-1-yl)-1H-pyrrole]	10 to 100	10 to 100	1000 to 10000	2.5
COCCN(C)C(=O)c1cn(Cc2cncn2CC2CCN(C(C)=O)CC2)cc1-c1cccc2ccccc12 [Compound 7, 1-[1-(1-Acetyl-piperidin-4-ylmethyl)-1H-imidazol-5-ylmethyl]-3-[N-(2-methoxyethyl)-N-methyl]carbamoyl-4-(naphthalen-1-yl)-1H-pyrrole]	10 to 100	10 to 100	10000 to 100000	1.8
CN1CCN(C(=O)c2cn(Cc3cncn3CC3CCN(C(=O)OCc4ccccc4)CC3)cc2-c2cccc3ccccc23)CC1 [Compound 38, 1-[1-(1-Benzyloxycarbonylpiperidin-4-yl)methyl-1H-imidazol-5-yl]methyl-3-(4-methylpiperazin-1-yl)carbonyl-4-(naphthalen-1-yl)-1H-pyrrole]	15	12.5	2500	3.8
CN1CCN(C(=O)c2cn(Cc3cncn3CC3CCN(C(=O)OC/C=C/c4ccccc4)CC3)cc2-c2cccc3ccccc23)CC1 [Compound 48]	7	12.5	1000	3.3
COCCN(C)C(=O)c1cn(Cc2cncn2CC2CCN(C(=O)N3CCCc4ccccc43)CC2)cc1-c1cccc2ccccc12 [Compound 31, 3-[N-(2-Methoxyethyl)-N-methyl]carbamoyl-4-(naphthalen-1-yl)-1-{1-[1-(1,2,3,4-tetrahydroquinolin-1-ylcarbonyl)piperidin-4-ylmethyl]-1H-imidazol-5-ylmethyl}-1H-pyrrole]	20	10 to 100	10000 to 50000	4
COCCN(C)C(=O)c1cn(Cc2cncn2CC2CCN(C(=O)OCC=C(C)C)CC2)cc1-c1cccc2ccccc12 [Compound 22]	20	10 to 100	1000 to 10000	9
COCCN(C)C(=O)c1cn(Cc2cncn2CC2CCN(C(=O)OCc3cccc4ccccc34)CC2)cc1-c1cccc2ccccc12 [Compound 19, 3-[N-(2-Methoxyethyl)-N-methyl]carbamoyl-4-(naphthalen-1-yl)-1-{1-[1-(1-naphthalen-1-ylmethyloxycarbonyl)piperidin-4-ylmethyl]-1H-imidazol-5-ylmethyl}-1H-pyrrole]	20	10	1000 to 10000	7
COCCN(C)C(=O)c1cn(Cc2cncn2CC2CCN(C(=O)c3ccc4ccccc4c3)CC2)cc1-c1cccc2ccccc12 [Compound 27, 3-[N-(2-Methoxyethyl)-N-methyl]carbamoyl-4-(naphthalen-1-yl)-1-{1-[1-(naphthalen-2-ylcarbonyl)piperidin-4-ylmethyl]-1H-imidazol-5-ylmethyl}-1H-pyrrole]	15	10 to 100	1000 to 10000	9
CN1CCN(C(=O)c2cn(Cc3cncn3CC3CCN(Cc4ccc(-c5ccccc5)cc4)CC3)cc2-c2cccc3ccccc23)CC1 [Compound 56, 1-{1-[1-(4-Biphenylmethyl)piperidin-4-yl]methyl-1H-imidazol-5-yl}methyl-3-(4-methylpiperazin-1-yl)carbonyl-4-(naphthalen-1-yl)-1H-pyrrole]	20	50	5000	5
CN1CCN(C(=O)c2cn(Cc3cncn3CC3CCN(C(=O)N(C)Cc4ccccc4)CC3)cc2-c2cccc3ccccc23)CC1 [Compound 52]	10	50	10000 to 50000	2.3
CC(C)c1nc(C(=O)N2CCC(Cn3cncc3Cn3cc(C(=O)N4CCN(C)CC4)c(-c4cccc5ccccc45)c3)CC2)cs1 [Compound 51]	10	5	10000 to 50000	3
COCCN(C)C(=O)c1cn(Cc2cncn2CC2CCN(C(=O)NCc3ccccc3)CC2)cc1-c1cccc2ccccc12 [Compound 9, 1-{1-[1-(N-Benzylcarbamoyl)-piperidin-4-ylmethyl]-1H-imidazol-5-ylmethyl}-3-[N-(2-methoxyethyl)-N-methyl]carbamoyl(naphthalen-1-yl)-1H-pyrrole]	10 to 1000	10 to 100	1000 to 50000	1 to 10
